In the METLIN SMRT retention time set (Domingo-Almenara et al. 2019):

Experiment: gradient 5% acetonitrile 3 min, to 50% in 2 min, to 85% in 15 min, held 3 min, 100 µL/min
Conditions: column: Zorbax Extend-C18 2.1 x 50 mm; eluents: water / acetonitrile, 0.1% formic acid
Procedure, shortened: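 Mixtures of ~100 pure standards were chromatographed on a Zorbax Extend-C18 column (2.1 × 50 mm, 1.8 μm) at 100 μL/min using water and acetonitrile, each with 0.1% formic acid. Detection used a quadrupole time-of-flight mass spectrometer in positive and negative ionization mode, and data collection spanned 3 months. Retention time was obtained from adduct peaks picked computationally and each checked manually.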

SMILES	RP-LC retention time [s]
Cn1c(C(=O)N2CCN(c3cccc(Cl)c3)CC2)cc2c(=O)oc3ccccc3c21	1030
Cc1cc(C)c2c(N(C)C)nc(C(=O)NCCN(C)C3CCCCC3)nc2n1	562
CCNC(=O)N1C[C@@H]2CCCN3CCC[C@@H]([C@H]23)[C@H]1CCCC(=O)NCC1CC1	569
O=C1[C@H]2CN(Cc3cccc(Cl)c3)C[C@H]2C(=O)N1CCN1CCc2ccccc2C1	659
Cc1nc(-c2cccc(-c3noc(CNS(=O)(=O)c4ccccc4)n3)c2)cs1	977
Cc1ccc(CNC(=O)Cn2nc(C)c3nn(-c4ccccc4)c(-n4cccc4)c3c2=O)o1	946
Fc1ccc(CN2CCc3nc(N4CCN(c5ccccc5F)CC4)ncc3C2)c(F)c1	795
O=C(C1=C(O)C(=O)N(CCCn2ccnc2)C1c1ccc(F)cc1)c1cc2ccccc2o1 (centres undefined)	622
COc1ccc(C(O)CN2CCN(c3ncccn3)CC2)cc1 (centres undefined)	747
C=CCn1nc(C)c(-c2cc(C(=O)O)[nH]n2)c1C	605
Cc1cc2[nH]c(C(=O)Nc3ccc(F)cc3)c(CN3CCOCC3)c2s1	666
O=S(=O)(c1ccccc1Cl)N1CC(COc2ccncc2)C2(CCOCC2)C1 (centres undefined)	574
CCc1noc(-c2ccc(-n3ncc(C(=O)N4CCSCC4)c3C)nc2)n1	893
O=C(NCc1ccc(Br)cc1)c1cn2nc(Cl)ccc2n1	882
CCC(=O)N1CCc2cc(N3CC(C(=O)N4CCN(C(C)C)CC4)CC3=O)ccc21 (centres undefined)	580
CCNc1nc(C)cc(N2CCN(C(=O)Nc3cc(C)cc(C)c3)CC2)n1	702
Cn1c(=O)c2c(ncn2CC(=O)Nc2nccs2)n(C)c1=O	576
Cn1c(CNC(=O)c2cn3ccccc3n2)nc2ccccc21	564
Cn1cc(CC(=O)NCc2nc(-c3ccccc3)no2)c2ccccc21	837
O=C(C1=NN(Cc2cccc(F)c2)c2cc(Cl)ccc2S1(=O)=O)N1CCOCC1	904

SMILES	RP-LC retention time [s]
COC[C@@H]1CN(Cc2ccc(C#N)cc2)C[C@H]1c1ccccn1	553
O=C(c1ccc(-c2csc(C3CC3)n2)cc1)N1CCCCC1	971
Cc1noc(C2(NC(=O)c3cc(F)cc(F)c3)CCCCC2)n1	916
Cc1ccc(NC(=O)NCC(c2cccnc2)c2cn(C)c3ccccc23)cc1 (centres undefined)	816
CC(C)N(Cc1ccccc1)C(=O)c1cc2c(=O)n3ccccc3nc2n1C	884
O=S(=O)(c1ccc2nncn2c1)N(Cc1ccccc1Cl)c1ccccc1	885
COCCN1C(=O)c2ccccc2C(C(=O)NCCCN2CCOCC2)C1c1cccs1 (centres undefined)	805
O=c1c(O[C@@H]2OC([C@H](O)CO)[C@H](O)[C@H]2O)c(-c2ccc(O)c(O)c2)oc2cc(O)cc(O)c12 (some centres undefined)	641
CCn1cc(S(=O)(=O)NCc2ccc(C)cc2)c2cccnc21	900
CCCc1noc(-c2ccc(-n3cnc(C(=O)N4CCCC4)c3)nc2)n1	816
O=C(NCCCn1cccn1)C1CCN(c2nnc3ccc(Cl)cn23)CC1	618
O=C(CN1C(=O)C2CCCCN2c2ccc(C(=O)N3CCOCC3)cc21)Nc1ccc(Cl)cc1 (centres undefined)	832
O=C(CCc1nc2cccnc2n1-c1ccccc1)NCCc1c[nH]c2ccccc12	706
O=C1NCCN2CC3(CCN(C(=O)Nc4ccccc4)CC3)CC12 (centres undefined)	570
O=C(Nc1nnc(-c2ccc(Cl)s2)o1)c1ccc(S(=O)(=O)N2CCCC2)cc1	814
CCc1nc(-c2ccc(-c3noc(CNC(=O)Cc4ccc(Cl)cc4)n3)cc2)cs1	1080
Cc1ccc(S(=O)(=O)N2C[C@@H](F)C[C@H]2C(=O)N2CCCCC2)cc1C	823
COc1ccc(-c2noc(CN3N=NC4C(=O)N(c5ccc(F)c(F)c5)C(=O)C43)n2)cc1 (centres undefined)	1130
COc1ccc(/C=C/c2nc(-c3ccc4oc(C)nc4c3)no2)cc1OC	995
Cc1ccc2[nH]cc(CCNC(=O)C3CCN(c4ccc(N5CCCCC5)nn4)CC3)c2c1	685

SMILES	RP-LC retention time [s]
CCc1ccccc1NC(=O)NCC1CCOCC1	705
NC(N)=Nc1nc2ccc([N+](=O)[O-])cc2[nH]1	651
CCOc1ccc(-c2noc(-c3nn(-c4cccc(OC)c4)ccc3=O)n2)cc1	938
Cc1nc([C@@H]2CN(C(=O)c3cc(C)n(Cc4ccco4)c3C)C[C@H]2C(N)=O)n[nH]1	618
CCN1C(=O)c2cccnc2Sc2cc(CNC(=O)c3ccc(C#N)cc3)ccc21	756
COCn1c(-c2ccc(OC)c(OC)c2)nc2ccccc21	573
CCc1sc(NC(=O)c2cc3c([nH]c2=O)CC(C)(C)CC3=O)nc1-c1ccc(C)c(C)c1	1150
Cc1cc(N2CCN(C(=O)Cc3cccc(F)c3)CC2)nc2nncn12	593
O=c1[nH]cnc2scc(-c3ccc(Cl)cc3)c12	734
Cc1ccc(Cl)cc1N1CCN(CC(O)COc2ccccc2[N+](=O)[O-])CC1 (centres undefined)	626
O=C(NCc1cccs1)NCC1CC(=O)N(Cc2ccc(F)cc2)C1 (centres undefined)	656
Cc1nc(C(=O)Nc2ccc(F)cc2C)c(C)o1	889
COc1ccc(C2Cn3cnc(-c4nc(-c5ccc(OC)cc5OC)no4)c3CO2)cc1 (centres undefined)	912
CC(C)CC(=O)Nc1cnc(-c2ccccc2)nc1	906
Cc1csc(-c2cc(S(=O)(=O)Nc3ccc(F)cc3Cl)c(C)s2)n1	1040
O=C(NC1CC1)c1nc(C(=O)N2CCN(c3ccccc3F)CC2)cs1	818
CCn1nc(CNC(=O)CSc2ccncc2)c2ccccc21	598
Cc1cc(C(=O)N2CCCCC2)c2c(=O)n(Cc3ccc(Cl)cc3)c(=O)n(C)c2n1	1020
COc1ccc(C(=O)N2CC(n3cc(COCC4CC4)nn3)C2)cc1	712
CN(C1CCc2nn(C)c(=O)n2CC1)S(=O)(=O)c1ccccc1Cl (centres undefined)	865

More lines, now with the values ahead:

RP-LC retention time [s]	SMILES
621	Cc1cc(NC(=O)C2CCN(C(=O)c3cccc(-n4cnnn4)c3)CC2)no1
815	CCc1ccccc1N(C)C(=O)Cc1c(C(=O)O)c(C)cn1C
803	CCCOc1ccc(CNC(=O)c2cnc(OC)nc2)cc1
633	CCOC(=O)N1CCN(C(=O)C2CN(C(=O)c3c[nH]c4ccccc34)C2)CC1
1100	COc1cccc(NC(=O)Cn2nc3cc(C)nc(Nc4ccc(C)c(F)c4)n3c2=O)c1
730	CSc1cccc(NC(=O)C2CC(=O)N(c3ccc4c(c3)CCN4C(C)=O)C2)c1 (centres undefined)
1020	CCn1c(=O)oc2cc(-c3noc(COc4ccccc4)n3)ccc21
1320	CCN(C(=O)Cc1ccccc1)c1nc(-c2ccc(C)cc2)cs1
823	CCN1c2ccccc2C(=O)NC12CCN(C(=O)Cc1ccc(C)cc1)CC2
1340	CCCOc1nc2ccccc2nc1N1CCCC(C(=O)Nc2cccc(C(=O)OCC)c2)C1 (centres undefined)
592	O=C(NC1CC1)C1CCCN(c2cnc3nccnc3c2)C1 (centres undefined)
816	Cc1cccc(CNC(=O)C2CCN(S(=O)(=O)c3ccc(-c4cc(C)[nH]n4)o3)CC2)c1
1010	Cc1ccc(Cn2c(=O)c(N3CCN(C(=O)NCc4ccco4)CC3)nc3ccccc32)cc1
780	O=C(Nc1ccc(F)c(Cl)c1)C1CCCN(c2ccnc(-c3ccc(F)cc3)n2)C1 (centres undefined)
616	COc1cccc(NC(=O)N2CCN(c3cnn4c(C)nnc4c3)CC2)c1
998	CCOC(=O)c1nc(Nc2ccc(OCC(C)C)cc2)c2ccccc2n1
671	CC(C)CC(=O)Nc1ccc(N2CCCC(C)C2)cc1C(=O)O (centres undefined)
751	O=C(NC1CC1)c1ccc(OCC2CCCN2C(=O)c2ccccc2F)cc1 (centres undefined)
726	CCOC(=O)c1cnc2nc(C)ccc2c1Nc1cc(F)ccc1F
640	CN(C(=O)Cn1nc(Cc2cccnc2)c2ccccc2c1=O)C1CCCCC1
578	COc1ccc2nc(N3CCC(C(=O)N4CCN(c5ccccn5)CC4)CC3)sc2c1
818	CC(C)NC(=O)c1ccc(OCC2CCCN(C(=O)c3ccc(N(C)C)cc3)C2)cc1 (centres undefined)
885	CN1c2cc(C(=O)NCCCc3ccccc3)ccc2C(=O)N2CCCCC21 (centres undefined)
867	Cc1ccc(-n2nc(C)c3sc(N4CCCC(C(=O)NCc5ccc(N(C)C)cc5)C4)nc32)cc1 (centres undefined)
1200	O=C(Cc1cccc(F)c1)N1CCCC1c1nc(-c2ccccc2Cl)no1 (centres undefined)
789	CCc1cc(C2CCCN2C(=O)NCCc2ccccc2)on1 (centres undefined)
747	O=C(NCc1ccccc1C(F)(F)F)C1CCN(c2cnc3nccnc3c2)CC1
925	Cc1ccc(CNC(=O)C2(C)CCN(S(=O)(=O)c3ccccc3)CC2)cc1
1360	Cc1ccc(-n2nc(C)c3sc(N4CCCC(C(=O)Nc5cc(Cl)ccc5C)C4)nc32)cc1 (centres undefined)
